Experimental data from patent US20130310379A1, “MODULATORS OF METHYL MODIFYING ENZYMES, COMPOSITIONS AND USES THEREOF” (CONSTELLATION PHARMACEUTICALS, priority 2010, published 2013).

target: EZH2 (Homo sapiens, UniProt Q15910); assay: EZH2 assay: rPRC2 with biotinylated oligonucleosome substrates and 3H SAM, FlashPlate scintillation counting, IC50; format: biochemical; conditions: rPRC2, biotinylated oligonucleosome substrates, 3H SAM; read-out: EZH2 IC50
Procedure, shortened: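 rPRC2 (2 nM EZH2) pre-incubated 20 min with compound (80 to 0.16 uM, ten 2-fold steps), then 60 min reaction with 0.2 uM 3H SAM, 0.2 uM biotinylated oligonucleosomes, 3.6 uM H3K27me3 peptide in Tris pH 8.5. SAH/EDTA quench; 4-parameter IC50 fit.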

Chain of EZH2 (Q15910 whole entry): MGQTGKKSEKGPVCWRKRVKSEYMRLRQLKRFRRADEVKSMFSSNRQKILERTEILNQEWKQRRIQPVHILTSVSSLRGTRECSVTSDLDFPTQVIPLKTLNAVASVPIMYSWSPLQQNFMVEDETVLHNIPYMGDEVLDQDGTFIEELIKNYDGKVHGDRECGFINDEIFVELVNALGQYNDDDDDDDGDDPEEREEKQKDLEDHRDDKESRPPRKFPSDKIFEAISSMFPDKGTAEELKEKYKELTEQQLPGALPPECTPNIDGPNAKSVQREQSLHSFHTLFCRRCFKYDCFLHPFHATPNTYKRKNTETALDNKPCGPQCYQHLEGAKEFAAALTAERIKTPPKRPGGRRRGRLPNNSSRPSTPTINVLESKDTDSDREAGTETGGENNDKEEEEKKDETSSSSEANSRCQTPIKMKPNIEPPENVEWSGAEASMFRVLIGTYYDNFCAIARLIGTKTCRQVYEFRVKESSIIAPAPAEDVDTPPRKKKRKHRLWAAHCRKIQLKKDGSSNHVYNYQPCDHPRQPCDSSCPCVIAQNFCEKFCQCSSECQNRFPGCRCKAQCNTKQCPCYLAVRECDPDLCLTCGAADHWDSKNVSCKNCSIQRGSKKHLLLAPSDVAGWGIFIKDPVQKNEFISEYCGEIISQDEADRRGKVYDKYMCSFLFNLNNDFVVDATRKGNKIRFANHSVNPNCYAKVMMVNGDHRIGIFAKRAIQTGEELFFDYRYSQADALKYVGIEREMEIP
Chain of EZH2 (O75530 whole entry partner): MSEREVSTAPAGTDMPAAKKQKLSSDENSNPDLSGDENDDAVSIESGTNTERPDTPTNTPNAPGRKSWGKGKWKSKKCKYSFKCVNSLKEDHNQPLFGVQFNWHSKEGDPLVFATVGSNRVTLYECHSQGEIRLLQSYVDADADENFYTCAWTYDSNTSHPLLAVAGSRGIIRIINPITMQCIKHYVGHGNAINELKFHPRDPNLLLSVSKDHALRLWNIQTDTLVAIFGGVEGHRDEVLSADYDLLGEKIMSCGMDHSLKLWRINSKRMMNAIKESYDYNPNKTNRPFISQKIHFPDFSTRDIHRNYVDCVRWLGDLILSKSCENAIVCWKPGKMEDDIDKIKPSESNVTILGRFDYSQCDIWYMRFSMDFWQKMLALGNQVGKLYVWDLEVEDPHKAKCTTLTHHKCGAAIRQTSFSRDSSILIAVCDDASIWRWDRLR
Chain of EZH2 (Q15022 whole entry partner): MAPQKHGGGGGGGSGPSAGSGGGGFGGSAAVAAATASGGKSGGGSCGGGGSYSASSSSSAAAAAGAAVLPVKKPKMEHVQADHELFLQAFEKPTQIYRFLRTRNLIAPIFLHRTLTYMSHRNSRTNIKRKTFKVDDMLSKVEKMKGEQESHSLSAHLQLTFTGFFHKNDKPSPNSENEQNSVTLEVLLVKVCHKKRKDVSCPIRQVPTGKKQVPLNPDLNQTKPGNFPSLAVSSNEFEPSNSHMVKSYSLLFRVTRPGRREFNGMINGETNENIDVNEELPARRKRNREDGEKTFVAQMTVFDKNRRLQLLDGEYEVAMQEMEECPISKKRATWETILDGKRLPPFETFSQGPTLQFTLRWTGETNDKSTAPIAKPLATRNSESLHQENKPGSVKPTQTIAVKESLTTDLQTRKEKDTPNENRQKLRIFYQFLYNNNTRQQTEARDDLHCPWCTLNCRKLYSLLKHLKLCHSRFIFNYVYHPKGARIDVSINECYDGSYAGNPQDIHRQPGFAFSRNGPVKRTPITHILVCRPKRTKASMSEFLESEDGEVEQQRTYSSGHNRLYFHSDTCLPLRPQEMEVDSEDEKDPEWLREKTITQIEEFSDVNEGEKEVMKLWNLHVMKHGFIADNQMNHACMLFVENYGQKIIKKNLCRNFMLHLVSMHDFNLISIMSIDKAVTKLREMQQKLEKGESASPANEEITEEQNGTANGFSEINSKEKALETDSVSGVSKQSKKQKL

SMILES	IC50
CNCc1ccccc1Oc1ccc(C(=O)NC2CC(C)(C)NC(C)(C)C2)cc1 [Compound I-274]	> 80 µM
CN(C)Cc1ccccc1Oc1ccc(C(=O)NC2CC(C)(C)NC(C)(C)C2)cc1 [Compound I-275]	> 80 µM
CCN1C(C)(C)CC(NC(=O)c2ccc(Oc3ccccc3C#N)c(Cl)c2)CC1(C)C [Compound I-276]	5 to 20 µM
CC1(C)CC(NC(=O)c2ccc(Oc3ccccc3-c3cccs3)c(Cl)c2)CC(C)(C)N1 [Compound I-277]	< 5 µM
CC1(C)CC(NC(=O)c2ccc(Oc3ccccc3-c3nccs3)c(Cl)c2)CC(C)(C)N1 [Compound I-278]	< 5 µM
CC1(C)CC(NC(=O)c2ccc(Oc3ccccc3-c3cncnc3)c(Cl)c2)CC(C)(C)N1 [Compound I-279]	< 5 µM
COc1ccncc1-c1ccccc1Oc1ccc(C(=O)NC2CC(C)(C)NC(C)(C)C2)cc1Cl [Compound I-280]	> 80 µM
CCOC(=O)N1CCC(NC(=O)c2ccc(Oc3ccccc3C#N)c(Cl)c2)CC1 [Compound I-281]	> 80 µM
CC1(C)CC(NC(=O)c2ccc(Oc3ccccc3-c3nn[nH]n3)c(Br)c2)CC(C)(C)N1 [Compound I-282]	> 80 µM
CC1(C)CC(NC(=O)c2ccc(Oc3cccc(CN4CCCCC4)c3C#N)cc2)CC(C)(C)N1 [Compound I-283]	5 to 20 µM
CC1(C)CC(NC(=O)c2ccc(Oc3ccccc3C(N)=O)c(Cl)c2)CC(C)(C)N1 [Compound I-284]	5 to 20 µM
CNC(=O)c1ccccc1Oc1ccc(C(=O)NC2CC(C)(C)NC(C)(C)C2)cc1Cl [Compound I-285]	20 to 80 µM
CC1(C)CC(NC(=O)c2ccc(Oc3ccccc3C(=O)NCc3ccccc3)c(Cl)c2)CC(C)(C)N1 [Compound I-286]	5 to 20 µM
CC(O)c1ccccc1Oc1ccc(C(=O)NC2CC(C)(C)NC(C)(C)C2)cc1 (stereo not drawn) [Compound I-287]	20 to 80 µM
COc1cncc(-c2ccccc2Oc2ccc(C(=O)NC3CC(C)(C)NC(C)(C)C3)cc2Cl)c1 [Compound I-288]	< 5 µM
CN1C(C)(C)CC(NC(=O)c2ccc(Oc3ccccc3C#N)c(Cl)c2)CC1(C)C [Compound I-289]	< 5 µM
CC(=O)N1C(C)(C)CC(NC(=O)c2ccc(Oc3ccccc3C#N)c(Cl)c2)CC1(C)C [Compound I-290]	> 80 µM
CC1(C)CC(NC(=O)c2ccc(Oc3cccc4cnccc34)c(Br)c2)CC(C)(C)N1 [Compound I-291]	< 5 µM
CC1(C)CC(NC(=O)c2ccc(CCOc3ccccc3)cc2)CC(C)(C)N1 [Compound I-292]	> 80 µM
Cc1ncccc1-c1ccccc1Oc1ccc(C(=O)NC2CC(C)(C)NC(C)(C)C2)cc1Cl [Compound I-293]	5 to 20 µM
COC(=O)c1ccc(-c2ccccc2Oc2ccc(C(=O)NC3CC(C)(C)NC(C)(C)C3)cc2Cl)cn1 [Compound I-294]	< 5 µM
Cc1ccc(-c2ccccc2Oc2ccc(C(=O)NC3CC(C)(C)NC(C)(C)C3)cc2Cl)cn1 [Compound I-295]	< 5 µM
Cc1cncc(-c2ccccc2Oc2ccc(C(=O)NC3CC(C)(C)NC(C)(C)C3)cc2Cl)c1 [Compound I-296]	< 5 µM
Cc1ccncc1-c1ccccc1Oc1ccc(C(=O)NC2CC(C)(C)NC(C)(C)C2)cc1Cl [Compound I-297]	5 to 20 µM
CC1CCCCC1Oc1ccc(C(=O)NC2CC(C)(C)NC(C)(C)C2)cc1 (stereo not drawn) [Compound I-298]	> 80 µM

SMILES	IC50
CC1(C)CC(NC(=O)c2ccc(OC3CCCC3)cc2)CC(C)(C)N1 [Compound I-299]	> 80 µM
CC1(C)CC(NC(=O)c2ccc(Sc3ccccc3)c(Cl)c2)CC(C)(C)N1 [Compound I-300]	20 to 80 µM
Cc1ccccc1Sc1ccc(C(=O)NC2CC(C)(C)NC(C)(C)C2)cc1Cl [Compound I-302]	20 to 80 µM
CC1(C)CC(NC(=O)c2ccc(-n3cnc4ccccc43)c(Cl)c2)CC(C)(C)N1 [Compound I-303]	> 80 µM
CC1(C)CC(NC(=O)c2ccc(Oc3ccccc3CC#N)cc2)CC(C)(C)N1 [Compound I-305]	20 to 80 µM
CC1(C)CC(NCc2ccc(Oc3ccccc3C#N)cc2)CC(C)(C)N1 [Compound I-306]	> 80 µM
Cc1cccc(Oc2ccc(C(=O)NC3CC(C)(C)NC(C)(C)C3)cc2Cl)c1C#N [Compound I-309]	< 5 µM
CCc1cccc(Oc2ccc(C(=O)NC3CC(C)(C)NC(C)(C)C3)cc2Cl)c1C#N [Compound I-310]	< 5 µM
CC1(C)CC(NC(=O)c2ccc(Oc3cccc(C(F)(F)F)c3C#N)c(Cl)c2)CC(C)(C)N1 [Compound I-311]	< 5 µM
CC1(C)CC(NC(=O)c2ccc(Oc3ccccc3-c3nn[nH]n3)c(Cl)c2)CC(C)(C)N1 [Compound I-313]	> 80 µM
CC1(C)CC(NC(=O)c2ccc(Oc3cccc4c(Cl)nccc34)cc2)CC(C)(C)N1 [Compound I-314]	5 to 20 µM
CC1(C)CC(NC(=O)c2ccc(Oc3cccc4cnc(Cl)cc34)cc2)CC(C)(C)N1 [Compound I-315]	< 5 µM
CC1(C)CC(NC(=O)c2ccc(Oc3cccc4c(N)nccc34)cc2)CC(C)(C)N1 [Compound I-316]	20 to 80 µM
CC1(C)CC(NC(=O)c2ccc(Oc3cccc4c(=O)[nH]ccc34)cc2)CC(C)(C)N1 [Compound I-317]	> 80 µM
CC1(C)CC(NC(=O)c2ccc(Oc3ccncc3)c(Br)c2)CC(C)(C)N1 [Compound I-318]	20 to 80 µM
CC1(C)CC(NC(=O)c2ccc(Oc3ccncc3)cc2)CC(C)(C)N1 [Compound I-319]	> 80 µM
COc1ncccc1-c1ccccc1Oc1ccc(C(=O)NC2CC(C)(C)NC(C)(C)C2)cc1Cl [Compound I-321]	> 80 µM
COC(=O)c1cncc(-c2ccccc2Oc2ccc(C(=O)NC3CC(C)(C)NC(C)(C)C3)cc2Cl)c1 [Compound I-322]	< 5 µM
Cc1ccc(-c2cccc(Oc3ccc(C(=O)NC4CC(C)(C)NC(C)(C)C4)cc3Cl)c2C#N)s1 [Compound I-323]	< 5 µM
Cc1ccccc1Oc1ccc(C(=O)NC2CC(C)(C)NC(C)(C)C2)cc1Cl [Compound I-325]	5 to 20 µM
CC1(C)CC(NC(=O)c2ccc(-n3ccc4ccccc43)c(Cl)c2)CC(C)(C)N1 [Compound I-328]	20 to 80 µM
N#Cc1c(Oc2ccc(C(=O)NC3CCNCC3C#N)cc2Cl)cccc1-c1ccnnc1 (stereo not drawn) [Compound I-329]	> 80 µM
CC1(C)CC(NC(=O)c2ccc(Oc3cccc4cccnc34)cc2)CC(C)(C)N1 [Compound I-331]	20 to 80 µM
Cc1cc(C(=O)NC2CC(C)(C)NC(C)(C)C2)ccc1Oc1ccccc1C(C)C [Compound I-332]	5 to 20 µM
Cc1cc(C(=O)NC2CC(C)(C)NC(C)(C)C2)cc(C)c1Oc1ccccc1C#N [Compound I-335]	20 to 80 µM

SMILES	IC50
Cn1cc(-c2cccc(Oc3ccc(C(=O)NC4CC(C)(C)NC(C)(C)C4)cc3Cl)c2C#N)cn1 [Compound I-336]	< 5 µM
CC1(C)CC(NC(=O)c2ccc(Oc3cccc(-c4ccc[nH]4)c3C#N)c(Cl)c2)CC(C)(C)N1 [Compound I-337]	< 5 µM
CC1(C)CC(NC(=O)c2ccc(Oc3cccc(-c4ccn[nH]4)c3C#N)c(Cl)c2)CC(C)(C)N1 [Compound I-338]	< 5 µM
CCN(C(=O)c1ccc(Oc2ccccc2C#N)c(Cl)c1)C1CC(C)(C)NC(C)(C)C1 [Compound I-341]	> 80 µM
Cc1cc(C(=O)NC2CC(C)(C)NC(C)(C)C2)ccc1Oc1cccc(CC#N)c1 [Compound I-345]	< 5 µM
CC1(C)CC(NC(=O)c2ccc(Oc3cccc4cccnc34)c(Cl)c2)CC(C)(C)N1 [Compound I-346]	5 to 20 µM
CNc1cccc(Oc2ccc(C(=O)NC3CC(C)(C)NC(C)(C)C3)cc2Cl)c1C#N [Compound I-348]	< 5 µM
CC1(C)CC(NC(=O)c2ccc(Oc3ccncc3C#N)c(Cl)c2)CC(C)(C)N1 [Compound I-349]	5 to 20 µM
CC1(C)CC(NC(=O)c2ccc(Oc3cccc4cnc(N)cc34)cc2)CC(C)(C)N1 [Compound I-350]	5 to 20 µM
CC1(C)CC(NC(=O)c2cc(F)c(Oc3ccccc3C#N)c(Br)c2)CC(C)(C)N1 [Compound I-351]	< 5 µM
Cc1ncccc1-c1cccc(Oc2ccc(C(=O)NC3CC(C)(C)NC(C)(C)C3)cc2Cl)c1C#N [Compound I-352]	< 5 µM
CC1(C)CC(NC(=O)c2ccc(Oc3ccccc3C(=O)O)c(Cl)c2)CC(C)(C)N1 [Compound I-353]	> 80 µM
CC1(C)CC(NC(=O)c2ccc(Oc3cccc(C(=O)O)c3)c(Cl)c2)CC(C)(C)N1 [Compound I-354]	> 80 µM
CC1(C)CC(NC(=O)c2ccc([S+]([O-])c3ccccc3)cc2)CC(C)(C)N1 (stereo not drawn) [Compound I-355]	> 80 µM
CC1(C)CC(NC(=O)c2ccc(S(=O)(=O)c3ccccc3)cc2)CC(C)(C)N1 [Compound I-357]	> 80 µM
CC1(C)CC(NC(=O)c2ccc(Oc3ccc(F)cc3C#N)c(Cl)c2)CC(C)(C)N1 [Compound I-359]	5 to 20 µM
Cc1cncc(-c2cccc(Oc3ccc(C(=O)NC4CC(C)(C)NC(C)(C)C4)cc3Cl)c2C#N)c1 [Compound I-360]	< 5 µM
CC1(C)CC(NC(=O)c2ccc(Oc3cccc(-c4cccnc4N)c3C#N)c(Cl)c2)CC(C)(C)N1 [Compound I-361]	5 to 20 µM
Cn1cc(-c2ccccc2Oc2ccc(C(=O)NC3CC(C)(C)NC(C)(C)C3)cc2Cl)nn1 [Compound I-363]	< 5 µM
Cc1ccncc1-c1cccc(Oc2ccc(C(=O)NC3CC(C)(C)NC(C)(C)C3)cc2Cl)c1C#N [Compound I-365]	< 5 µM
COc1ccc(-c2cccc(Oc3ccc(C(=O)NC4CC(C)(C)NC(C)(C)C4)cc3Cl)c2C#N)cn1 [Compound I-366]	< 5 µM
N#Cc1ccccc1Oc1ccc(C(=O)NC2CCN(c3cccnc3)CC2)cc1Cl [Compound I-368]	> 80 µM
CC1(C)CC(NC(=O)c2ccc(Oc3cccc4c[nH]c(=O)cc34)cc2)CC(C)(C)N1 [Compound I-370]	20 to 80 µM
CC1(C)CC(NC(=O)c2ccc(Oc3cccc(-c4cncs4)c3C#N)c(Cl)c2)CC(C)(C)N1 [Compound I-371]	< 5 µM
CC1(C)CC(NC(=O)c2ccc(Oc3cccc4nccn34)c(Cl)c2)CC(C)(C)N1 [Compound I-372]	5 to 20 µM
